Measurements from patent US7034047B2, “Triazole derivative” (Astellas Pharma, Inc., priority 2000, dated 2006).

Assays:
[1] = molecular target: T1, GLYT1 subtype of the glycine transporter (Rattus norvegicus, UniProt P28572); assay: [3H]-glycine uptake assay in C6 glioma cells (action of inhibiting glycine transporter); assay type: cell-based; conditions: 20 min at 37° C., read-out: GLYT-inhibiting activity IC50
T1 construct: C6 glioma cell expressing GLYT1 subtype of the glycine transporter; host or cells: C6 glioma cells
T1 sequence (P28572 1-638): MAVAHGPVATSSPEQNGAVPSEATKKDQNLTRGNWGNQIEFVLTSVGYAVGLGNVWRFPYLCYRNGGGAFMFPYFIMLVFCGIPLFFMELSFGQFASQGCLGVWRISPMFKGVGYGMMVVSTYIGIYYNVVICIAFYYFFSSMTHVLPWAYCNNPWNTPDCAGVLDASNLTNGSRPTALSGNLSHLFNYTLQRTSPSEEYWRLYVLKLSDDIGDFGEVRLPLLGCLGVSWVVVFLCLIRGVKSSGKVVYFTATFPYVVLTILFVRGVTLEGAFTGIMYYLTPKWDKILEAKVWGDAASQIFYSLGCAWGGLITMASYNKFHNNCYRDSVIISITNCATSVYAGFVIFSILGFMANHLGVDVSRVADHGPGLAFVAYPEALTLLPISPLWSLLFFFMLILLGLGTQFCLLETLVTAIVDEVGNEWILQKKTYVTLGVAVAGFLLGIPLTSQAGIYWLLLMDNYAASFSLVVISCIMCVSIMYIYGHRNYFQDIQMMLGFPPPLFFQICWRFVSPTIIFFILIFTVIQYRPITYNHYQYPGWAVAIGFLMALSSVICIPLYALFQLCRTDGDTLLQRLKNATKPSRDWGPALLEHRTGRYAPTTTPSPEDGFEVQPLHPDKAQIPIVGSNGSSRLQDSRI
Experimental: 1. Action of Inhibiting Glycine Transporter
C6 glioma cell (American Type Culture Collection) was cultured in DMEM containing 10% fetal bovine serum, 100 units/ml penicillin G and 0.1 mg/ml streptomycin sulfate in a CO2 incubator under conditions of 5% CO2 and 37° C.
[^3H]-glycine uptake was performed by the method of Gomeza, et al.
C6 glioma cells were plated out at a concentration of 2×10^4 cells/well in a 96-well plate (Culturplate, Packard Co.), for culturing for 2 days. Subsequently, [^3H]-glycine uptake was tested. The cell was rinsed once in a buffer (150 mM NaCl, 5 mM KCl, 1 mM CaCl2, 1 mM MgCl2, 10 mM glucose, 5 mM L-alanine, 10 mM Hepes-Na, pH 7.4), followed by subsequent addition of the buffer, for incubation at 37° C. for 10 minutes.
After incubation, the buffer was exchanged to a reaction buffer including [^3H]-glycine (about 0.2 μM, 41 Ci/mmol, New England Nuclear)and a compound to be assessed, for incubation at 37° C. for another 20 minutes. After 20-min reaction, the reaction mixture was rinsed in ice-cold PBS (phosphate buffered saline). The cell was dissolved in 0.1N NaOH solution, to assay the radioactivity incorporated with a liquid scintillation counter. The specific incorporation was defined as a portion substituted with 3 mM sarcosine in the total incorporation. The test compound was assessed by determining the incorporation-inhibiting ratio of the specific incorporation.

[2] = tested on: (+)-HA966-induced learning disability; assay: (+)-HA966-induced learning disability (mouse passive avoidance test); assay type: in vivo, male ddY mouse; conditions: dosed intraperitoneally; step-through latency, p<0.05
From the text: 3. (+)-HA966-Induced Learning Disability (Mouse Passive Avoidance Test)
• Animal: male ddY mouse (Nippon SLC; age 7 to 9 weeks at training) was used. 16 to 32 animals were used per one group. <Experimental Procedures> Preparation of Pharmaceutical Drugs • (1) A test compound for oral administration was suspended in aqueous 0.5%methyl cellulose solution, and for intraperitoneal administration was suspended in solution dissolved 0.5% of methyl cellulose solution in saline (hereinafter referred to as 0.5% methyl cellulose solution). The administration volume was 10 ml per 1 kg·body weight. […]
• (1) On day 1 at the learning experiment, the mice were acclimated in an experimental room for one hour or longer. • (2) A test compound or the vehicle was orally or intraperitoneally given. • (3) 20 minutes thereafter, (+)-HA966 was administered at 60 μg intracerebroventriculally. • (4) 15 minutes after the dosing of (+)-HA966, the each mouse was placed in the bright room of the experimental apparatus of the passive avoidance reaction test, where the mouse was left for 30 seconds. […] A significance was determined at p<0.05.

IC50 [1]: 0.36 µM
SMILES: CC(C)c1nnc(-c2ccc(-c3ccccc3)cc2)n1-c1ccccc1F [Production Example 1, 3-Biphenyl-4-yl-4-(2-fluorophenyl)-5-isopropyl-4H-1,2,4-triazole]
minimum effective dose [2]: 3 mg/kg
